One test addresses T1, PRKACA (Homo sapiens, UniProt P17612).
T1 construct: purchased Millipore 539482
The test is described as follows: PRKACA assay at Km (EZ Reader 2 electrophoretic mobility shift). The class given is biochemical. The following applies: 5 μM ATP (Km), 1 μM Kemptide, 90 minutes at 25 C; read-out: Enz PRKACA IC50. A digest of the protocol:
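PRKACA (0.18 nM) was incubated with 1 μM 5-FAM-Kemptide and 5 μM ATP for 90 min at 25 °C in HEPES pH 7.5 buffer with 10 mM MgCl2, 1% DMSO, then stopped with EDTA. Substrate and product were separated by microfluidic mobility shift, and IC50 was taken from a 4-parameter fit of normalised inhibition.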
For orientation: A gel shift assay detects complexes by their altered migration in electrophoresis.

Another test concerns the target T2, PRKACA-DNAJB1 (Homo sapiens, UniProt P17612).
T2 construct: DNAJB1 (fusion partner, P25685); the other entry of the earlier key: DNAJB1 (P25685, DnaJ homolog subfamily B member 1)
In words: PRKACA-DNAJB1 enzyme assay (EZ Reader 2 electrophoretic mobility shift). The class given is biochemical. The settings on record: read-out: Enz PRKACA-DNAJB1 IC50. As to the method:
A Perkin Elmer electrophoretic mobility shift platform (the EZ Reader 2) was used to assess the activity of test compounds against a kinase of interest. Fluorescently labeled substrate peptide was incubated in the presence of kinase, ATP, and the test compound, so that a portion of the peptide was phosphorylated by the enzyme. At the end of the reaction, the mix of phosphorylated (product) and non-phosphorylated (substrate) peptide containing solutions was passed through the microfluidic system of the Perkin Elmer EZ Reader 2 under an applied potential difference. The presence of the phosphate group on the product peptide provided a difference in mass and charge between those of the substrate peptide, resulting in a separation of the substrate and product pools in the sample. As the stopped solutions passed under the instrument's LED light the phosphorylated and un-phosphorylated fluorophore bound peptides were detected and resolved as separate peaks. The ratio between these peaks therefore reflected the test compound's impact on the kinase at that concentration in that well under those conditions.

The subject of test [1] is PKA (phosphorylation of VASP on Serine 157). The test is described as follows: Cellular potency assay: P-VASP(157) HTRF in Forskolin-stimulated Huh7 cells. The class given is cell-based. The settings on record: Homo sapiens, Huh-7, 4 hours compound, 5 μM Forskolin 30 minutes, read-out: Phos VASP(S157) IC50. A digest of the protocol: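 Huh7 cells in serum-free DMEM were pretreated with compound for 4 h at 37 °C (0.24% DMSO final), then stimulated with 5 μM forskolin for 30 min. Lysates were assayed for phospho-VASP Ser157 by HTRF sandwich immunoassay, read at 665/620 nm.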

pIC50: −log10 of the molar value.

Regarding `C[C@H]1Oc2ccc(F)c(F)c2[C@@H](NC(=O)c2ccc(-c3ccnc4[nH]ccc34)nc2)[C@H]1O` [Compound 151], the pIC50 (usually the negative decadic logarithm of the IC50, by convention in mol/L) at PRKACA is ≥ 9.00; on PRKACA-DNAJB1 it was ≥ 9.00; in test [1], > 7.30.

In the case of `Cc1c[nH]c2nccc(-c3ccc(C(=O)N[C@@H]4c5ccccc5C[C@H]4N4CCCC4)cn3)c12` [Compound 152], the pIC50 is 8.30 to 9.00 at PRKACA, 8.30 to 9.00 on PRKACA-DNAJB1 and 7.00 to 11.00 in test [1].

With `O=C(N[C@@H]1c2c(F)cc(C(F)F)cc2C[C@@H]1O)c1ccc(-c2ccnc3[nH]ccc23)nc1` [Compound 154], the pIC50 on PRKACA is ≥ 9.00; on PRKACA-DNAJB1, ≥ 9.00; in test [1], > 7.30.

For the compound `O=C(N[C@@H]1c2c(F)cccc2C[C@H]1N1CCCC1)c1ccc(-c2ccnc3[nH]ccc23)nc1` [Compound 157, N-[(1R,2R)-7-Fluoro-2-(pyrrolidin-1-yl)-2,3-dihydro-1H-inden-1-yl]-6-{1H-pyrrolo[2,3-b]pyridin-4-yl}pyridine-3-carboxamide], the pIC50 was ≥ 9.00 on PRKACA, ≥ 9.00 at PRKACA-DNAJB1 and > 7.30 in test [1].

Regarding `O=C(N[C@@H]1c2ccccc2C[C@H]1N1CCCC1)c1ccc(-c2ccnc3[nH]cc(F)c23)nc1` [Compound 159], the pIC50 at PRKACA is ≥ 9.00; on PRKACA-DNAJB1, 8.30 to 9.00; in test [1] it was 7.00 to 11.00.

On to `Cc1c[nH]c2nccc(-c3ccc(C(=O)N[C@@H]4c5c(ccc(F)c5F)O[C@@H](C)[C@H]4O)cn3)c12` [Compound 160], for which the pIC50 at PRKACA is ≥ 9.00; at PRKACA-DNAJB1, ≥ 9.00; in test [1] it was > 7.30.

For the compound `Cc1c[nH]c2nccc(-c3ccc(C(=O)N[C@@H]4c5c(ccc(F)c5F)O[C@H](C)[C@@H]4O)cn3)c12` [Compound 161], the pIC50 is ≥ 9.00 on PRKACA, ≥ 9.00 at PRKACA-DNAJB1 and 7.00 to 11.00 in test [1].

With `Cc1c[nH]c2nccc(-c3ccc(C(=O)N[C@@H]4c5c(F)cccc5C[C@H]4N4CCCC4)cn3)c12` [Compound 165], the figures for the pIC50 (at PRKACA; on PRKACA-DNAJB1; in test [1]) were ≥ 9.00, ≥ 9.00 and > 7.30, respectively.

On to `O=C(N[C@@H]1c2c(F)cccc2C[C@H]1N1CC[C@@H](O)C1)c1ccc(-c2ccnc3[nH]ccc23)nc1` [Compound 167], for which the values for the pIC50 (on PRKACA; on PRKACA-DNAJB1; in test [1]) were ≥ 9.00, ≥ 9.00 and 7.00 to 11.00, respectively.

On to `O=C(N[C@@H]1c2c(F)cccc2C[C@H]1N1CCCC1)c1ccc(-c2ccnc3[nH]cc(F)c23)nc1` [Compound 169], for which the pIC50 was ≥ 9.00 at PRKACA, ≥ 9.00 on PRKACA-DNAJB1 and > 7.30 in test [1].

`O=C(N[C@@H]1c2c(F)cccc2C[C@H]1N1CC[C@H](F)C1)c1ccc(-c2ccnc3[nH]ccc23)nc1` [Compound 170]: the negative-log IC50 (pIC50) at PRKACA was ≥ 9.00; on PRKACA-DNAJB1 it was ≥ 9.00; in test [1] it was > 7.30.

For `CO[C@@H]1CCN([C@@H]2Cc3cccc(F)c3[C@H]2NC(=O)c2ccc(-c3ccnc4[nH]ccc34)nc2)C1` [Compound 173], the pIC50 at PRKACA is ≥ 9.00; on PRKACA-DNAJB1 it was ≥ 9.00; in test [1], 7.00 to 11.00.

For `Cc1c[nH]c2nccc(-c3ccc(C(=O)N[C@@H]4c5c(ccc(F)c5F)C[C@H]4N4CCCC4)cn3)c12` [Compound 175], the pIC50 was ≥ 9.00 at PRKACA, ≥ 9.00 at PRKACA-DNAJB1 and > 7.30 in test [1].

In the case of `O=C(N[C@@H]1c2c(Cl)cccc2C[C@H]1N1CC[C@@H](O)C1)c1ccc(-c2ccnc3[nH]ccc23)cn1` [Compound 176], the pIC50 on PRKACA is ≥ 9.00; on PRKACA-DNAJB1, ≥ 9.00; in test [1], > 7.30.

In the case of `C[C@]1(O)CCN([C@@H]2Cc3cccc(Cl)c3[C@H]2NC(=O)c2ccc(-c3ccnc4[nH]ccc34)nc2)C1` [Compound 180], the pIC50 was ≥ 9.00 at PRKACA, ≥ 9.00 at PRKACA-DNAJB1 and > 7.30 in test [1].

With `O=C(N[C@@H]1c2c(Cl)cccc2C[C@H]1N1C[C@H](O)[C@@H](F)C1)c1ccc(-c2ccnc3[nH]ccc23)nc1` [Compound 185], the pIC50 at PRKACA is ≥ 9.00; at PRKACA-DNAJB1 it was ≥ 9.00; in test [1], > 7.30.

The record behind these values is patent publication US12583856B2, “Inhibitors of protein kinase A” (Blueprint Medicines Corporation, priority 2021, dated 2026).
